The text below walks through data of article PMC10174618, “Monoterpenoid aryl hydrocarbon receptor allosteric antagonists protect against ultraviolet skin damage in female mice” (Nature Communications, 2023).

Holding throughout (experiment): biochemical
Common to all, as to set-up: KINOMEscan scanMAX active site-directed competition binding assay, percent of control, 468 kinases
Conditions in all cases: competition binding, percent of control

The target in one assay is DAPK1 (Homo sapiens, UniProt P53355). The procedure, abridged: (§1)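 KINOMEscan active site-directed competition binding assay against 468 human kinases with 100 μM S-carvone. Binding expressed as % of control, with 35% of control as the inhibition threshold.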
Another assay addresses PIK3CA(I800L) (Homo sapiens, UniProt P42336, I800L). The procedure, abridged:
as §1

Another assay deals with WNK1 (Homo sapiens, UniProt Q9H4A3). An outline of the steps: as §1
Chain of WNK1 (Q9H4A3 whole entry): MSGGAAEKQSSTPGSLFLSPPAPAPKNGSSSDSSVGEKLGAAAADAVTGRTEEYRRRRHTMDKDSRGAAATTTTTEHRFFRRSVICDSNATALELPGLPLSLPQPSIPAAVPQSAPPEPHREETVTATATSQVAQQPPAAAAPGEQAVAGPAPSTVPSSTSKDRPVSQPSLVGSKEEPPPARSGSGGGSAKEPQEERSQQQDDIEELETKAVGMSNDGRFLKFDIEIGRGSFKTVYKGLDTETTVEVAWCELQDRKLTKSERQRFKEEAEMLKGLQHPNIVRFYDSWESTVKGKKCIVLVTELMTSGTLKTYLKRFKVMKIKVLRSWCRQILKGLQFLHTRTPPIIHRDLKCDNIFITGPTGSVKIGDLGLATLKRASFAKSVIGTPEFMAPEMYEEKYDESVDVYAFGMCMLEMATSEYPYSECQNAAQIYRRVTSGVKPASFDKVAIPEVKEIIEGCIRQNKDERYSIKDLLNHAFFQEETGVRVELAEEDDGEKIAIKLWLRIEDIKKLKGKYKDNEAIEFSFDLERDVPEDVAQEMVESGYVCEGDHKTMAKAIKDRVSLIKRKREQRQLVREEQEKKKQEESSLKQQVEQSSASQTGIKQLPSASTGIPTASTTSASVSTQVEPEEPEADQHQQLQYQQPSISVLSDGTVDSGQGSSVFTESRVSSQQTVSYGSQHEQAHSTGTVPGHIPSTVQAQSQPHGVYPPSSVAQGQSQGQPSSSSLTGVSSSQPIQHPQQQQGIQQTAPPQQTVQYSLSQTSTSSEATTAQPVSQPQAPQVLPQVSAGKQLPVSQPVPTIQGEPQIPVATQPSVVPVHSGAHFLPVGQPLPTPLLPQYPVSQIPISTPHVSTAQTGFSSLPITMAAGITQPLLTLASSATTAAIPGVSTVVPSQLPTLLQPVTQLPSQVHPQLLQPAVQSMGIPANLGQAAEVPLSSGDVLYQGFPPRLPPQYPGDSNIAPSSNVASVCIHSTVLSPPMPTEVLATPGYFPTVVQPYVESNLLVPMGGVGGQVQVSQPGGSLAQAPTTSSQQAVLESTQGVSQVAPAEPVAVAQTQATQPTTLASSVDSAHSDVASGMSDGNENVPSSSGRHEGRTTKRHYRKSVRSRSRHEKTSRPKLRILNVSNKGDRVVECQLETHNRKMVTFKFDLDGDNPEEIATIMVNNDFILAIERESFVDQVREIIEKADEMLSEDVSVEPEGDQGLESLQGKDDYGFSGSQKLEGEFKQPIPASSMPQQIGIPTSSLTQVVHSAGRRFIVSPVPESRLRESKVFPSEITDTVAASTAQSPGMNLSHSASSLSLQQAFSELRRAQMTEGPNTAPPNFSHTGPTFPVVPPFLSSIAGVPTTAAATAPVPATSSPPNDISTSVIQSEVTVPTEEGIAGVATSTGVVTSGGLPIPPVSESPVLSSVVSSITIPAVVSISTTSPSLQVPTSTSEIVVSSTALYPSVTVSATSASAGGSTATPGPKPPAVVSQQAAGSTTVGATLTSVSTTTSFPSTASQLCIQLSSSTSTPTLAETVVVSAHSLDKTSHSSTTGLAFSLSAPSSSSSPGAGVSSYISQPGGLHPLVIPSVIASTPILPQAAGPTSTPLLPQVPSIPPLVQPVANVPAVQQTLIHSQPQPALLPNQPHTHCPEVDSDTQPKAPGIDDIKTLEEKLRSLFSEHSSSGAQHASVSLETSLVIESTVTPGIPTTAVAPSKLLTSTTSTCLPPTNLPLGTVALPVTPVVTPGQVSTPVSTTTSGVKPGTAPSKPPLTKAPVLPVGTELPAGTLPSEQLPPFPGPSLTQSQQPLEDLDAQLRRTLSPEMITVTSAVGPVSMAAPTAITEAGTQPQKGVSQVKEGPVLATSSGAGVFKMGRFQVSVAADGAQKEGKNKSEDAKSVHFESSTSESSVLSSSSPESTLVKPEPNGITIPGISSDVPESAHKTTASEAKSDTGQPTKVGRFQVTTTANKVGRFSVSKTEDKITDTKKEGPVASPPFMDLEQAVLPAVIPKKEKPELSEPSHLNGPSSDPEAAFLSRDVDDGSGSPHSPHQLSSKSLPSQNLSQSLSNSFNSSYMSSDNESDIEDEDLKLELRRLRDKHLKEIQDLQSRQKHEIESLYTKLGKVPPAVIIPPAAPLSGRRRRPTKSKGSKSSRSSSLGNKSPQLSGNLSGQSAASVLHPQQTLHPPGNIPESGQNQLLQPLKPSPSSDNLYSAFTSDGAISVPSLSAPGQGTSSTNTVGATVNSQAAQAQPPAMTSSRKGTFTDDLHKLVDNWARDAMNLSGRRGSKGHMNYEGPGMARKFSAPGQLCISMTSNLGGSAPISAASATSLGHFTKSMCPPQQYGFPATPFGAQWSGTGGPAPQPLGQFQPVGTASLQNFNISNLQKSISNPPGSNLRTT
In the next assay the target is FGFR1 (Homo sapiens, UniProt P11362). An outline of the steps: as §1
Chain of FGFR1 (P11362 whole entry): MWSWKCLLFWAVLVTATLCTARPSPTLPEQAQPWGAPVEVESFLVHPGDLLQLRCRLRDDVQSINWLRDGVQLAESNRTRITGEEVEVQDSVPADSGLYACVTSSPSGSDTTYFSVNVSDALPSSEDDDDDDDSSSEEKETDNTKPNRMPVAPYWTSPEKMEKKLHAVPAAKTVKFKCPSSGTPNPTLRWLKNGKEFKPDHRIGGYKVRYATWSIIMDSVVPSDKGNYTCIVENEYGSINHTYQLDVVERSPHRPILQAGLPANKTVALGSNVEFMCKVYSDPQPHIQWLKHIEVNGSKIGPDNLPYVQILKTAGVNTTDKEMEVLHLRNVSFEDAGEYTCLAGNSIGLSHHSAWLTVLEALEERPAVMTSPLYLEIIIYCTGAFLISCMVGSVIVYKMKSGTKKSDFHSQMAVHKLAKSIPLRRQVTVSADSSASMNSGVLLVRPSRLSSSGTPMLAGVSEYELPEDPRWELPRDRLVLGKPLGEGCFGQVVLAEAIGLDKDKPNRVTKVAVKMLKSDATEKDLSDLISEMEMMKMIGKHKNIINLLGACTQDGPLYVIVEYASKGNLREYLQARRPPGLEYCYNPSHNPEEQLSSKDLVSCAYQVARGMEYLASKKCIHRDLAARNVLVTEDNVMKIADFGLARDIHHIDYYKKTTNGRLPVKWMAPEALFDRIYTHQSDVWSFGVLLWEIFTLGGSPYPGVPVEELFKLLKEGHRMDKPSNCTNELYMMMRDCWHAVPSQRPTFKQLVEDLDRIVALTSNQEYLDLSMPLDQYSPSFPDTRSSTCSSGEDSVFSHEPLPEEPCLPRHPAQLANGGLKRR
A further assay concerns the target T1, NIK (Homo sapiens, UniProt Q99558).
T1 construct: gene MAP3K14
An outline of the steps:
as §1

The next assay deals with FLT3(D835V) (Homo sapiens, UniProt P36888, D835V). The procedure, abridged:
as §1

A further assay has as its target CLK4 (Homo sapiens, UniProt Q9HAZ1). The procedure, abridged: as §1
The next assay has as its target T2, ASK1 (Homo sapiens, UniProt Q99683).
T2 construct: gene MAP3K5
An outline of the steps:
as §1

Another assay deals with CSNK2A2 (Homo sapiens, UniProt P19784). An outline of the steps: as §1
Chain of CSNK2A2 (P19784 whole entry): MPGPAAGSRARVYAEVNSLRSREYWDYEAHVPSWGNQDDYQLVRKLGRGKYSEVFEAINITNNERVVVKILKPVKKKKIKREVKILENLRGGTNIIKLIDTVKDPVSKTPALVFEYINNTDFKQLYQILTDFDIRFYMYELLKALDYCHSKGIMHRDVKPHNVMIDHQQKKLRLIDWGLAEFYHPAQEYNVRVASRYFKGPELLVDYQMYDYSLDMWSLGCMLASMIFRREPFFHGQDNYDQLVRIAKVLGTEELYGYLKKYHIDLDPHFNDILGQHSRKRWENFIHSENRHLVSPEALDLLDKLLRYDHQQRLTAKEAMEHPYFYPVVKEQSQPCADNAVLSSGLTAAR
In a further assay the target is T3, TRKB (Homo sapiens, UniProt Q16620).
T3 construct: gene NTRK2
An outline of the steps:
as §1

A further assay concerns the target PIK3CA (Homo sapiens, UniProt P42336). An outline of the steps:
as §1

Another assay has as its target STK36 (Homo sapiens, UniProt Q9NRP7). An outline of the steps:
as §1

The next assay deals with T4, JNK3 (Homo sapiens, UniProt P53779).
T4 construct: gene MAPK10
The procedure, abridged: as §1

The target of a further assay is T5, DRAK2 (Homo sapiens, UniProt O94768).
T5 construct: gene STK17B
An outline of the steps: as §1

Chain of CLK4 (Q9HAZ1 whole entry): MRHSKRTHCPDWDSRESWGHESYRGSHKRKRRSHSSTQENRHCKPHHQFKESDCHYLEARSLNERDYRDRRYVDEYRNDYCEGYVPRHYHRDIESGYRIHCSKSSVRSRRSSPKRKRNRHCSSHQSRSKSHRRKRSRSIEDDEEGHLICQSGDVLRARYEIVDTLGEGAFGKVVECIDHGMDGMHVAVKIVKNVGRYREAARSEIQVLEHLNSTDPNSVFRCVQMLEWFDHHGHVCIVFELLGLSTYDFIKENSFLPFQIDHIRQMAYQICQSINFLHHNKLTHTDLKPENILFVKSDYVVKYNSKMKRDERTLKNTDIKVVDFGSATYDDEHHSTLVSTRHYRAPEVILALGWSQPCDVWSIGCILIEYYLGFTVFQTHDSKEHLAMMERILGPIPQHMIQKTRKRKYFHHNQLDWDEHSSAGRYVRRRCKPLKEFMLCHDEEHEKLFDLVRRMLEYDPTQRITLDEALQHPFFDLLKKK
Chain of PIK3CA (P42336 whole entry): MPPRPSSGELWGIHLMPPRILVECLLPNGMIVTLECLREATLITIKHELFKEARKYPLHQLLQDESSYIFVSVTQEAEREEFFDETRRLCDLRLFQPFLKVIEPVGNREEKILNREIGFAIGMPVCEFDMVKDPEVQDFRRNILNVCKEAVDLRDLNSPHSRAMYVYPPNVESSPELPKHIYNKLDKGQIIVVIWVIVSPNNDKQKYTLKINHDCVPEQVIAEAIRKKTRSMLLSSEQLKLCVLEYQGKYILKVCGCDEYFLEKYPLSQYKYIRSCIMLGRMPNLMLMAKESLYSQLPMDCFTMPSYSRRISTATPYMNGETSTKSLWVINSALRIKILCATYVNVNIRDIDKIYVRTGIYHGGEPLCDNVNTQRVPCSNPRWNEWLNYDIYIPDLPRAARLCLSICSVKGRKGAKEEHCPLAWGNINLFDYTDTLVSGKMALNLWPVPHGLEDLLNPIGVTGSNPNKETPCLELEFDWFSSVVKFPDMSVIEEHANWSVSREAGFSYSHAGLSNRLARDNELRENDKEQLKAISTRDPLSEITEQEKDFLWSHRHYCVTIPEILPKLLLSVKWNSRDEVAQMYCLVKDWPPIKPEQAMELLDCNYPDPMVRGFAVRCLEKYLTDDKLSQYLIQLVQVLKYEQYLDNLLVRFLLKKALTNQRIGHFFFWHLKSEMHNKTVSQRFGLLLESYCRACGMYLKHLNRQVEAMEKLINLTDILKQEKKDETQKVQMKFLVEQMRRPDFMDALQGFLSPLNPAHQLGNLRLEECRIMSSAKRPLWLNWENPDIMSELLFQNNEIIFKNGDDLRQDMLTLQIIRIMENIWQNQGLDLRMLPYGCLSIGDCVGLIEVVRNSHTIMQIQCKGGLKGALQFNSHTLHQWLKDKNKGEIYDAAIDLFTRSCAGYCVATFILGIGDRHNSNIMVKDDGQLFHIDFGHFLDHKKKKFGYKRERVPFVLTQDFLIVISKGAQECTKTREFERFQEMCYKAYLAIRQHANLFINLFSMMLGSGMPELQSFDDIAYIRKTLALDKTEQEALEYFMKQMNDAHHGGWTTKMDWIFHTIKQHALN

Consider `C=C(C)[C@H]1CC=C(C)C(=O)C1` [S-carvone], for which the remaining binding at 100 µM at DAPK1 came to 65%; on PIK3CA(I800L) it was 95%; on WNK1, 86%; at FGFR1, 92%; on NIK it was 84%; at FLT3(D835V) it was 77%. The remaining binding at 100 µM at CLK4 was 91%; at ASK1, 81%; on CSNK2A2, 87%; at TRKB it was 78%; on PIK3CA, 79%; at STK36, 69%. Further, the remaining binding at 100 µM at JNK3 worked out at 88%; at DRAK2 it was 98%.
